According to patent US10793567B2, “Bicyclic inhibitors of histone deacetylase” (Rodin Therapeutics, Inc., priority 2017, dated 2020):

Key:
[1] = tested on: human megakaryocyte progenitors (CFU-Mk); assay: Human megakaryocyte progenitor CFC proliferation (CFU-Mk) in normal bone marrow; format: cell-based; details: for IC50: Homo sapiens, 6-point dose response, top concentration 20 μM, read-out: CFU-Mk Total IC50; for % Control CFU-Mk Total @ 10 uM dose: 3-point dose response
Experimental: Compounds were tested to evaluate the potential effects on human megakaryocyte progenitor proliferation in the CFU-Mk assay. Clonogenic progenitors of the human megakaryocyte (CFU-Mk) lineage were assessed in a semi-solid, collagen-based matrix containing rhIL-3 (10 ng/mL), rhIL-6 (10 ng/mL) and rhTpo (50 ng/mL).
Normal human bone marrow light density cells (lot #0170525), derived from normal bone marrow (NorCal Biologics, California), were stored at −152° C. until required for the assay. On the day of the experiment, the cells were thawed rapidly, the contents of each vial was diluted in 10 mL of Iscove's modified Dulbecco's medium containing 10% fetal bovine serum (IMDM+10% FBS) and washed by centrifugation (approximately 1200 r.p.m. for 10 minutes, room temperature). The supernatant was discarded and the cell pellets resuspended in a known volume of IMDM+10% FBS. A cell count (3% glacial acetic acid) and viability assessment (trypan blue exclusion test) was performed for the bone marrow sample.
All compounds were used as solutions in DMSO at 10 mM. Two different dosing paradigms were used depending on the study, either a six point dose response with top concentration of 20 μM, or a three point dose response with a top concentration of 10 μM. In six point dose response studies, compounds were tested at six distinct concentrations (20, 6.7, 2.2, 0.74, 0.25 and 0.082 μM), with serial dilutions prepared from the 10 mM stock concentration to achieve concentrations of 6.7, 2.2, 0.74, 0.25 and 0.082 mM. When added to the collagen-based media at 1:1000 (v/v), the final desired test concentrations were achieved. In order to generate the 20 μM final concentration, 8 μL of the 10 mM stock was added to the appropriately labeled tube. For the three point dose response studies, serial dilutions were prepared from the stock concentration to achieve concentrations of 2 and 0.4 mM. When added to the collagen-based media at 1:1000 (v/v), the final test concentrations of 10, 2 and 0.4 μM were achieved.
Clonogenic progenitors of the human megakaryocytic (CFU-Mk) lineages were set up in the media formulation described above. All compounds were added to the medium to give the final desired concentrations (20, 6.67. 2.22, 0.74, 0.25, and 0.082 μM). Solvent control cultures (containing no compound but 0.2% DMSO), as well as a standard control (containing no compound and no DMSO), were also initiated.
Human megakaryocyte progenitor assays were initiated with 1.8×10^5 cells per culture (lot #0170525). Following 14-16 days in culture, the cultures were transferred from the 35 mm dishes to labeled glass slides, were fixed (methanol/acetone) and then stained using an anti-human CD41 antibody and an alkaline phosphate detection system according to manufacturers' instructions. The colonies were assessed microscopically and scored by trained personnel and divided into the following categories based on size; CFU-Mk (3-20), CFU-Mk (21-49), CFU-Mk (≥50).
The mean±1 standard deviation of three replicate cultures was calculated for the progenitors. Two-tailed standard t-tests were performed to assess if there was a difference in the number of colonies generated between solvent control and treated cultures. Due to the potential subjectivity of colony enumeration, a p value of less than 0.01 is deemed significant. To calculate the concentration of 50% inhibition of colony growth (IC50) for each compound, a dose response curve was generated plotting the log of the compound concentration versus the percentage of control colony growth using Graphpad Prism 7.
Megakaryocyte colony enumeration was performed by trained personnel. In addition, the distribution of colony types as well as general colony and cellular morphology was analyzed. The variance in colony number detected in replicate cultures was representative of the historical coefficient of variation for colony enumeration using these types of assays. […]

HDAC1 = HDAC1 (Homo sapiens (Human), UniProt Q13547); assay: HDAC1 enzymatic assay (Caliper LabChip, peptide deacetylation); format: biochemical; details: 17 hours, 25° C.
HDAC1, sequence (Q13547 whole entry): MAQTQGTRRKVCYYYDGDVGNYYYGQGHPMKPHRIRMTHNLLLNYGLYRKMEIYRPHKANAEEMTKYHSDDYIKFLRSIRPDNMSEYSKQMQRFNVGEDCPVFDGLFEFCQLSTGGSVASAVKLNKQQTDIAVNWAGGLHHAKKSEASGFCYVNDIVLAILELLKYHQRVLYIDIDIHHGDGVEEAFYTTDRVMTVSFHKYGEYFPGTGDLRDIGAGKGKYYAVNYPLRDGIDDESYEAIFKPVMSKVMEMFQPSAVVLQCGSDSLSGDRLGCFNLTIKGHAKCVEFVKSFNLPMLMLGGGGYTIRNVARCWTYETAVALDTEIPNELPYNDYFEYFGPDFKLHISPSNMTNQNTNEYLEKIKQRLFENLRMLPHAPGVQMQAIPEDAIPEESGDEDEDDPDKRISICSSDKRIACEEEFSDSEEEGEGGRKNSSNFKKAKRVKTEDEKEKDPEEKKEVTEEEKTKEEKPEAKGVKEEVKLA
Experimental: The following describes an assay protocol for measuring the deacetylation of a peptide substrate by the enzymes HDAC2 or HDAC1. Enzyme, substrate, and cofactors are combined in a well of a microtiter plate and incubated for […] at 25° C. At the end of the incubation, the reaction is quenched by the addition of an SDS-containing buffer. Substrate and product are separated and quantified electrophoretically using the microfluidic-based LabChip 3000 Drug Discovery System from Caliper Life Sciences. The peptide substrate used in this assay is FAM-TSRHK(AC)KL-CONH2 (FAM is carboxyfluorescein). Peptide should be >98% purity by Capillary Electrophoresis. • 1. To a well of a 384-well plate, add 5 μL of 2× enzyme buffer. Using Labcyte Echo 550, add 100 nl compound. Enzyme and compound may be pre-incubated at this time if desired. • 2. Add 5 μL of 2× substrate buffer. • 3. Incubate plate at 25° C. for 17 hours. • 4. Terminate reaction by adding 40 μL of 1.55× stop buffer. • 5. Create job on a Caliper LabChip® 3000 Drug Discovery System. • 6. Load the plate and start electrophoresis using blue laser (480 nm) for excitation and green CCD (520 nm) for detection (CCD2). Reaction time=17 hours; Reaction temperature=25° C.
1% DMSO (from compound) 1 μM FAM-TSRHK(AC)KL-CONH2 5 nM HDAC Enzyme (specific activity may vary from lot-to-lot, and enzyme concentration may need to be adjusted to yield˜10-20% conversion of substrate to product).
Substrate and product peptides present in each sample are separated electrophoretically using the LabChip 3000 capillary electrophoresis instrument. As substrate and product peptides are separated, two peaks of fluorescence are observed. Change in the relative fluorescence intensity of the substrate and product peaks is the parameter measured, reflecting enzyme activity. Capillary electrophoregramms (RDA acquisition files) are analyzed using HTS Well Analyzer software (Caliper Life Sciences). The […] in each sample is determined as the product to sum ratio (PSR): P/(S+P), where P is the peak height of the product peptide and S is the peak height of the substrate peptide. For each compound, enzyme activity is measured at various concentrations (12 concentrations of compound spaced by 3× dilution intervals). Negative control samples (0%-inhibition in the absence of inhibitor) and positive control samples (100%-inhibition, in the presence of 20 mM EDTA) are assembled in replicates of four and are used to calculate %-inhibition values for each compound at each concentration. Percent inhibition (Pinh) is determined using following equation: Pinh=(PSR0%−PSRinh)/(PSR0%−PSR100%)*100, where PSRinh is the product sum ratio in the presence of inhibitor, PSR0% is the average product sum ration in the absence of inhibitor and PSR100% is the average product sum ratio in 100%-inhibition control samples.
The IC50 values of inhibitors are determined by fitting the inhibition curves (Pinh versus inhibitor concentration) by 4 parameter sigmoidal dose-response model using XLfit 4 software (IBDS).
In the table, “A” indicates a […] of between 0.1 μM and 0.5 μM and “B” a Kd value of greater than 0.5 μM and less than or equal to 5.0 μM.

| Structure (SMILES) | IC50 [1] [nM] | IC50 (HDAC1) [nM] | % Control CFU-Mk Total @ 10 uM dose [1] [%] |
| --- | --- | --- | --- |
| Cc1cc2c(cn1)CN(C(=O)Nc1nc(-c3cccnc3)ccc1N)C2 [Compound 12] | > 20000 | – | – |
| CCc1ncc2c(n1)CN(C(=O)Nc1nc(-c3cccs3)ccc1N)C2 [Compound 3] | 2000 | 500 to 5000 | – |
| CCc1cc2c(cn1)CN(C(=O)Nc1nc(-c3cccnc3)ccc1N)C2 [Compound 8] | – | 500 to 5000 | – |
| COCCn1cc2c(n1)CN(C(=O)Nc1nc(-c3ccc(F)cc3F)ccc1N)C2 [Compound 9] | 10800 | 500 to 5000 | – |
| CCc1ncc2c(n1)CN(C(=O)Nc1nc(-c3ccc(F)cc3)ccc1N)C2 [Compound 17] | – | 500 to 5000 | 28 |
| Cc1ncc2c(n1)CN(C(=O)Nc1nc(-c3ccc(F)s3)ccc1N)C2 [Compound 2] | 2000 | 500 to 5000 | – |
| Nc1ccc(-c2ccc(F)cc2)nc1NC(=O)N1Cc2cn(C3COC3)nc2C1 [Compound 1] | – | 500 to 5000 | – |
| Cc1ncc(-c2ccc(N)c(NC(=O)N3Cc4cn(CC(F)F)nc4C3)n2)s1 [Compound 5] | – | 500 to 5000 | 36 |
| Cc1ncc2c(n1)CN(C(=O)Nc1nc(-c3ccc(F)cc3)ccc1N)C2 [Compound 14] | – | 500 to 5000 | 31 |
